For this test, the system named is NOP receptor. The test can be described thus: NOP bias factor, G protein vs β-arrestin 2 (Black–Leff operational model). The conditions noted are these: for BIAS FACTOR: supplementary CSV (molecular formula strings), repeats Tables 1–7 without confidence limits; for bias factor (CL95%), NOP: ΔΔlog(τ/KA) G protein minus β-arrestin 2, N/OFQ(1–13)-NH2 as standard unbiased ligand, positive = toward G protein, mean of at least five experiments. From the text:
The concentration–response curves of each compound were fitted to the Black–Leff operational model, described by Nagi and Pineyro[70] [drawing 3] where [A] is the agonist concentration, the maximal response of the system is given by Em, n is a fitting parameter for the slope, the affinity of the agonist is represented by the equilibrium dissociation constant of the agonist–receptor complex (KA), and the efficacy of the agonist is defined by τ. τ and KA are descriptive parameters of intrinsic efficacy and binding affinity and may be directly obtained by fitting the experimental data to the operational equation and can be expressed as “transduction coefficients” log(τ/KA). The relative efficiency of agonists producing activation of any pathways can thus be quantified with a “normalized” transduction coefficient, namely Δlog(τ/KA). Finally, the bias factors were calculated as difference between Δlog(τ/KA) values for a given agonist between the pathways (G protein and β-arrestin 2) [drawing 4]
Bias factors are expressed as the mean of at least five independent experiments, and CL95% are indicated. Biased factor is considered to be statistically different from 0 when 0 is not included in CL95%. α values have been statistically analyzed with one-way analysis of variance (ANOVA) followed by the Dunnett post hoc test for multiple comparisons; P values less than 0.05 were considered to be statistically significant.

From PMC8011926 (Journal of Medicinal Chemistry, 2020) come the findings set out here.

Regarding `C[C@H](NC(=O)[C@H](CO)NC(=O)[C@H](CCCCN)NC(=O)[C@H](CCCNC(=N)N)NC(=O)[C@@H](C)NC(=O)CNC(=O)[C@@H](NC(=O)[C@H](Cc1ccccc1)NC(=O)CNC(=O)CNC(=O)[C@@H](N)Cc1ccccc1)[C@@H](C)O)C(=O)N[C@@H](CCCNC(=N)N)C(=O)N[C@@H](CCCCN)C(N)=O` [Compound 15, [DAla^7]N/OFQ(1–13)-NH2], the “BIAS FACTOR” value was found to be 0.21 and the “bias factor (CL95%), NOP” value is given as 0.21 (−0.28–0.70).
In the case of `C[C@H](NC(=O)CNC(=O)[C@@H](NC(=O)[C@H](Cc1ccccc1)NC(=O)CNC(=O)CNC(=O)[C@@H](N)Cc1ccccc1)[C@@H](C)O)C(=O)N[C@H](CCCNC(=N)N)C(=O)N[C@@H](CCCCN)C(=O)N[C@@H](CO)C(=O)N[C@@H](C)C(=O)N[C@@H](CCCNC(=N)N)C(=O)N[C@@H](CCCCN)C(N)=O` [Compound 16, [DArg^8]N/OFQ(1–13)-NH2], the “bias factor (CL95%), NOP” value was 0.26 (−0.25–0.77).
On to `C[C@H](NC(=O)CNC(=O)[C@@H](NC(=O)[C@H](Cc1ccccc1)NC(=O)CNC(=O)CNC(=O)[C@@H](N)Cc1ccccc1)[C@@H](C)O)C(=O)N[C@@H](CCCNC(=N)N)C(=O)N[C@@H](CCCCN)C(=O)N[C@H](CO)C(=O)N[C@@H](C)C(=O)N[C@@H](CCCNC(=N)N)C(=O)N[C@@H](CCCCN)C(N)=O` [Compound 18, [DSer^10]N/OFQ(1–13)-NH2], for which the “BIAS FACTOR” value is reported as -0.07 and the “bias factor (CL95%), NOP” value was “–0.07 (−0.52–0.39)”.
On to `C[C@H](NC(=O)CNC(=O)[C@@H](NC(=O)[C@H](Cc1ccccc1)NC(=O)CNC(=O)CNC(=O)[C@@H](N)Cc1ccccc1)[C@@H](C)O)C(=O)N[C@@H](CCCNC(=N)N)C(=O)N[C@@H](CCCCN)C(=O)N[C@@H](CO)C(=O)N[C@H](C)C(=O)N[C@@H](CCCNC(=N)N)C(=O)N[C@@H](CCCCN)C(N)=O` [Compound 19, [DAla^11]N/OFQ(1–13)-NH2], for which the “BIAS FACTOR” value is 0.14 and the “bias factor (CL95%), NOP” value is listed as 0.14 (−0.31–0.60).
Consider `C[C@H](NC(=O)CNC(=O)[C@@H](NC(=O)[C@H](Cc1ccccc1)NC(=O)CNC(=O)CNC(=O)[C@@H](N)Cc1ccccc1)[C@@H](C)O)C(=O)N[C@@H](CCCNC(=N)N)C(=O)N[C@@H](CCCCN)C(=O)N[C@@H](CO)C(=O)N[C@@H](C)C(=O)N[C@H](CCCNC(=N)N)C(=O)N[C@@H](CCCCN)C(N)=O` [Compound 20, [DArg^12]N/OFQ(1–13)-NH2], for which the “bias factor (CL95%), NOP” value was 0.26 (−0.19–0.71).
`C[C@H](NC(=O)CNC(=O)[C@@H](NC(=O)[C@H](Cc1ccccc1)NC(=O)CNC(=O)CNC(=O)[C@@H](N)Cc1ccccc1)[C@@H](C)O)C(=O)N[C@@H](CCCNC(=N)N)C(=O)N[C@@H](CCCCN)C(=O)N[C@@H](CO)C(=O)N[C@@H](C)C(=O)N[C@@H](CCCNC(=N)N)C(=O)N[C@H](CCCCN)C(N)=O` [Compound 21, [DLys^13]N/OFQ(1–13)-NH2]: the “BIAS FACTOR” value was found to be 0.03 and the “bias factor (CL95%), NOP” value is given as 0.03 (−0.42–0.48).
On to [AC3C^7]N/OFQ-NH2 [Compound 36], for which the “BIAS FACTOR” value stood at 0.40 and the “bias factor (CL95%), NOP” value is 0.40 (−0.11–0.90).
For [AC5C^7]N/OFQ-NH2 [Compound 37], the “BIAS FACTOR” value is listed as 0.08 and the “bias factor (CL95%), NOP” value is reported as 0.08 (−0.41–0.58).
On the same counts, the results for [AC5C^11]N/OFQ-NH2 [Compound 38] are 0.31 and 0.31 (−0.19–0.81).
For [Aib^11]N/OFQ-NH2 [Compound 35], the “BIAS FACTOR” value came out at 0.29 and the “bias factor (CL95%), NOP” value is 0.29 (−0.20–0.79).
